“Also recorded” adds a separate entry of the source. Where two headings read alike, the source gives them in different places.
What was measured:
[1] = test system: individuals with DMD; details: cited from earlier work; for muscle function and strength in individuals with DMD: humans with DMD
[2] = test system: myasthenia gravis; details: compared to prednisone; cited from earlier work
[3] = test system: mdx mouse; details: cited from earlier work; for muscle strength: dystrophin deficient mdx mice
[4] = test system: dystrophin deficient Caenorhabditis elegans; details: dystrophin deficient C. elegans; cited from earlier work
[5] = test system: gene expression in peripheral blood; assay: Whole genome microarray of peripheral whole blood RNA, DMD administered prednisone or deflazacort vs DMD not administered steroid; format: in vivo, human; details: for KFL10 expression: individuals administered prednisone, deflazacort, or both vs DMD not administered any agent; for KFL10 expression / CD163 nucleic acid expression / FKBP5 expression / expression of genes in the chondroitin sulfate biosynthesis pathway / haptoglobin nucleic acid expression / lactotransferrin expression / lipocalin expression: blood; for CD163 nucleic acid expression / FKBP5 expression / expression of genes in the chondroitin sulfate biosynthesis pathway / haptoglobin nucleic acid expression / lactotransferrin expression / lipocalin expression: pooled deflazacort or prednisone group vs DMD not administered; for genes with significantly different expression: pooled group administered either prednisone or deflazacort vs DMD not administered, fold change >|1.5|, unpaired t-test, p<=0.05; for genes with down-regulated expression levels / genes with up-regulated expression levels: pooled prednisone or deflazacort group vs DMD not administered, of the 524 genes
Method: Individuals with DMD were evaluated and had been diagnosed by a single board-certified pediatric neurologist. The diagnosis of DMD was based in part upon clinical history, examination findings, and selected muscle biopsies and was confirmed by molecular diagnostic testing.
(§1) Of the 34 individuals with DMD, 14 were administered either prednisone (PRED, n=6) or deflazacort, an oxazoline derivative of prednisolone (DEFL, n=8) at the time blood samples for gene expression evaluation were obtained. The mean duration of administration of either prednisone or deflazacort for these 14 individuals was 43.9 months. Of the 34 individuals with DMD, 20 individuals had not been administered either prednisone or deflazacort at the time blood samples for gene expression evaluation were obtained.
(§2) Sample processing and array hybridization, probe-level data analysis, and statistical analysis were identical to Example 1.

[6] = test system: gene expression in peripheral blood; assay: Whole genome microarray of peripheral whole blood RNA, DMD administered deflazacort vs DMD administered prednisone; format: in vivo, human
Method: as §1, §2

[7] = individuals with DMD administered prednisone, blood
[8] = DMD individuals receiving deflazacort
[9] = deflazacort compared to prednisone, of the 508 genes

SMILES: Cn1cnc([N+](=O)[O-])c1Sc1ncnc2nc[nH]c12 [azathioprine]
- muscle function and strength in individuals with DMD [1]: does not improve DMD; also recorded: no improvement
- immunosuppressant effectiveness [2]: less effective immunosuppressant

SMILES: C[C@]12C=CC(=O)C=C1CC[C@@H]1[C@@H]2[C@@H](O)C[C@@]2(C)[C@H]1CC[C@]2(O)C(=O)CO [prednisolone]
- muscle strength [3]: improve muscle strength
- CD-11 inflammatory cells in mdx muscle [3]: decrease
- muscle function and strength in individuals with DMD [1]: improve function
- muscle degeneration [4]: reduce muscle degeneration

SMILES: C[C@]12C=CC(=O)C=C1CC[C@@H]1[C@@H]2C(=O)C[C@@]2(C)[C@H]1CC[C@]2(O)C(=O)CO [prednisone]
- KFL10 expression [5]: up-regulated
- CD163 nucleic acid expression [5]: up-regulated expression levels
- FKBP5 expression [5]: up-regulated expression levels
- expression of genes in the chondroitin sulfate biosynthesis pathway [5]: up-regulated expression levels
- haptoglobin nucleic acid expression [5]: up-regulated expression levels
- lactotransferrin expression [5]: increased expression levels
- lipocalin expression [5]: increased expression levels
- genes with significantly different expression [5]: 524 genes
- genes with down-regulated expression levels [5]: 127 genes
- genes with up-regulated expression levels [5]: 397 genes
- muscle strength [3]: improve muscle strength
- KFL10 expression in the mdx mouse ([3]; following six weeks of prednisone administration): up-regulated
- CD-11 inflammatory cells in mdx muscle [3]: decrease
- muscle function and strength in individuals with DMD [1]: improved muscle function and strength
- muscle function and strength in individuals with DMD ([1]; listed as Prednisone): improve function
- muscle degeneration [4]: reduce muscle degeneration
- interleukin 1 beta expression [6, 7]: up-regulated
- interleukin 1 receptor antagonist expression [6, 7]: up-regulated
- interleukin 6 receptor expression [6, 7]: up-regulated
- expression of genes related to lipid metabolism, particularly in adipose tissue ([6]; prednisone compared to deflazacort, blood): up-regulated

SMILES: CC(=O)OCC(=O)[C@@]12N=C(C)O[C@@H]1C[C@H]1[C@@H]3CCC4=CC(=O)C=C[C@]4(C)[C@H]3[C@@H](O)C[C@@]12C [deflazacort]
- KFL10 expression [5]: up-regulated
- CD163 nucleic acid expression [5]: up-regulated expression levels
- FKBP5 expression [5]: up-regulated expression levels
- expression of genes in the chondroitin sulfate biosynthesis pathway [5]: up-regulated expression levels
- haptoglobin nucleic acid expression [5]: up-regulated expression levels
- lactotransferrin expression [5]: increased expression levels
- lipocalin expression [5]: increased expression levels
- genes with significantly different expression [5]: 524 genes
- genes with down-regulated expression levels [5]: 127 genes
- genes with up-regulated expression levels [5]: 397 genes
- side effects [1, 8]: fewer side effects
- weight gain [1, 8]: less weight gain
- muscle function and strength in individuals with DMD [1]: improved muscle function and strength
- genes significantly different ([6]; DMD administered deflazacort compared to DMD administered prednisone, fold change >=|1.5|, unpaired t-test, p<=0.05, peripheral blood): 508 genes
- changes in gene expression ([6]; deflazacort compared to prednisone): fewer changes in gene expression
- expression of retinoic acid receptor a (RARa) ([6]; deflazacort compared to prednisone, blood): significantly up-regulated
- genes significantly down-regulated [6, 9]: 478 genes
- genes significantly up-regulated [6, 9]: 30 genes

From US20100105054A1, “GENE EXPRESSION IN DUCHENNE MUSCULAR DYSTROPHY” (CINCINNATI CHILDREN'S HOSPITAL MEDICAL CENTER, priority 2008, published 2010)
